Data on 5 compounds can be found in article PMC12472391, “Borylated Five-Membered Ring Iminosugars: Synthesis, Spectroscopic Analysis, and Biological Evaluation for Glycosidase Inhibition and Anticancer Properties for Application in Boron Neutron Capture Therapy (BNCT)—Part 1” (Pharmaceuticals, 2025).

A short description of series [1]: Appearance: 1 mL of water added to 1 mg of solid, and mixed. The class given is physicochemical.
A further series concerns SJ-G2 glioblastoma cells. As to the kind of experiment: Cancer screening, MTT growth inhibition. It is filed as cell-based. To be noted: SJ-G2, 72-h exposure, read-out: SJ-G2 Glioblastoma, Percentage (%) Cell Growth Inhibition in response to 25 µM of Drug. How it is done: (§1) Two assays were run: the dose screen to ascertain cell growth inhibition in response to 25 µM of drug (on a blue background) and the dose response (GI50) (on a green background). For a discussion of BNCT as a radiotherapeutic modality, a rationalisation is provided here.
(§2) All test agents were prepared as stock solutions (20 mM) in dimethyl sulfoxide (DMSO) and stored at −20 °C. Cell lines used in the study included HT29, (colorectal carcinoma); U87, SJ-G2, (glioblastoma); MCF-7, (breast carcinoma); A2780 (ovarian carcinoma); H460 (lung carcinoma); A431 (skin carcinoma); Du145 (prostate carcinoma); BE2-C (neuroblastoma) and MiaPaCa-2 (pancreatic carcinoma); together with the one non-tumour derived normal breast cell line (MCF10A). All cell lines were incubated in a humidified atmosphere 5% CO2 at 37 °C. The cancer cell lines were maintained in Dulbecco’s modified Eagle’s medium (DMEM; Sigma, Australia) supplemented with foetal bovine serum (10%), sodium pyruvate (10 mM), penicillin (100 IUmL^−1), streptomycin (100 µg mL^−1), and L-glutamine (2 mM).
(§3) Growth inhibition was determined by plating cells in duplicate in medium (100 µL) at a density of 2500–4000 cells per well in 96-well plates. On day 0 (24 h after plating), when the cells are in logarithmic growth, medium (100 µL) with or without the test agent was added to each well. After a 72-h drug exposure, growth inhibitory effects were evaluated using the MTT (3-(4,5-dimethyltiazol-2-yl)-2,5-diphenyltetrazolium bromide) assay and absorbance read at 540 nm. The percentage growth inhibition was calculated at a fixed concentration of 25 µM, based on the difference between the optical density values on day 0 and those at the end of drug exposure. Each data point is the mean ± the standard error of the mean (SEM) calculated from three replicates, which were performed on separate occasions and separate cell line passages.

In series [2] the test system is A2780 ovarian carcinoma cells. As to the kind of experiment: Cancer screening, MTT growth inhibition. To be noted: Homo sapiens, 72-h exposure; for inhibition at 25 µM: A2780, 25 µM, read-out: A2780 Ovarian Carcinoma, Percentage (%) Cell Growth Inhibition in response to 25 µM of Drug; for GI50: A2780, dose response, read-out: A2780 Ovarian Carcinoma, GI50 = Concentration (µM) that inhibits cell growth by 50%. The class given is cell-based. As to the method: as §1, §2, §3

The test system of series [3] is MCF-7 breast carcinoma cells. The series is described as follows: Cancer screening, MTT growth inhibition. To be noted: Homo sapiens, MCF7, 72-h exposure, read-out: MCF-7 Breast Carcinoma, Percentage (%) Cell Growth Inhibition in response to 25 µM of Drug. It is filed as cell-based. As to the method:
as §1, §2, §3

Series [4] concerns HT29 colon carcinoma cells. As to the kind of experiment: Cancer screening, MTT growth inhibition. It is filed as cell-based. To be noted: Homo sapiens, 72-h exposure; for inhibition at 25 µM: HT-29, 25 µM, read-out: HT29 Colon Carcinoma, Percentage (%) Cell Growth Inhibition in response to 25 µM of Drug; for GI50: HT-29, dose response, read-out: HT29 Colon Carcinoma, GI50 = Concentration (µM) that inhibits cell growth by 50%. How it is done:
as §1, §2, §3

In series [5] the test system is BE2-C neuroblastoma cells. The series is described as follows: Cancer screening, MTT growth inhibition. It is filed as cell-based. Conditions: Homo sapiens, BE(2)-C, 72-h exposure, read-out: BE2-C Neuroblastoma, Percentage (%) Cell Growth Inhibition in response to 25 µM of Drug. As to the method:
as §1, §2, §3

The subject of series [6] is MIA-Pa-Ca2 pancreatic carcinoma cells. As to the kind of experiment: Cancer screening, MTT growth inhibition. The class given is cell-based. To be noted: Homo sapiens, 72-h exposure; for inhibition at 25 µM: MIA PaCa-2, 25 µM, read-out: MIA-Pa-Ca2 Pancreatic Carcinoma, Percentage (%) Cell Growth Inhibition in response to 25 µM of Drug; for GI50: MIA PaCa-2, dose response, read-out: MIA-Pa-Ca2 Pancreatic Carcinoma, GI50 = Concentration (µM) that inhibits cell growth by 50%. How it is done:
as §1, §2, §3

Series [7] relates to A431 skin carcinoma cells. As to the kind of experiment: Cancer screening, MTT growth inhibition. The class given is cell-based. To be noted: Homo sapiens, 72-h exposure; for inhibition at 25 µM: A-431, 25 µM, read-out: A431 Skin Carcinoma, Percentage (%) Cell Growth Inhibition in response to 25 µM of Drug; for GI50: A-431, dose response, read-out: A431 Skin Carcinoma, GI50 = Concentration (µM) that inhibits cell growth by 50%. As to the method: as §1, §2, §3

A further series concerns U87 glioblastoma cells. As to the kind of experiment: Cancer screening, MTT growth inhibition. It is filed as cell-based. Conditions: 72-h exposure, read-out: U87 Glioblastoma, Percentage (%) Cell Growth Inhibition in response to 25 µM of Drug. As to the method:
as §1, §2, §3

The test system of series [8] is H460 lung carcinoma cells. As to the kind of experiment: Cancer screening, MTT growth inhibition. The class given is cell-based. Conditions: Homo sapiens, 72-h exposure; for inhibition at 25 µM: NCI-H460, 25 µM, read-out: H460 Lung Carcinoma, Percentage (%) Cell Growth Inhibition in response to 25 µM of Drug; for GI50: NCI-H460, dose response, read-out: H460 Lung Carcinoma, GI50 = Concentration (µM) that inhibits cell growth by 50%. How it is done: as §1, §2, §3

Series [9] deals with Du145 prostate carcinoma cells. As to the kind of experiment: Cancer screening, MTT growth inhibition. The class given is cell-based. Conditions: Homo sapiens, DU-145, 72-h exposure, read-out: Du145 Prostate Carcinoma, Percentage (%) Cell Growth Inhibition in response to 25 µM of Drug. As to the method: as §1, §2, §3
Series [10] has as its system MCF10A normal breast cells. As to the kind of experiment: Cancer screening, MTT growth inhibition. It is filed as cell-based. Conditions: Homo sapiens, MCF-10A, 72-h exposure; for inhibition at 25 µM: read-out: MCF10A Breast (Normal), Percentage (%) Cell Growth Inhibition in response to 25 µM of Drug; for GI50: dose response, read-out: MCF10A Breast (Normal), GI50 = Concentration (µM) that inhibits cell growth by 50%. How it is done: as §1, §2
The non-cancer MCF10A cell line was maintained in DMEM/F12 (1:1) cell culture media, 5% heat inactivated horse serum, supplemented with penicillin (50 IUmL^−1), streptomycin (50 µg mL^−1), HEPES (20 mM), L-glutamine (2 mM), epidermal growth factor (20 ng mL^−1), hydrocortisone (500 ng mL^−1), cholera toxin (100 ng mL^−1), and insulin (10 mg mL^−1).
as §3

For series [11], the system named is β-D-glucuronidase (bovine liver). As to the kind of experiment: Glycosidase inhibition, Table 7. It is filed as biochemical. Conditions: 1 mg/mL aqueous solution added, 27 °C, run in water. As to the method: (§4) All enzymes and para-nitrophenyl substrates were purchased from Sigma. Enzymes were assayed at 27 °C in citric acid (0.1M)/disodium hydrogen phosphate (0.2 M) buffers at the optimum pH for the enzyme. The incubation mixture consisted of […] enzyme solution, […] of 1 mg/mL aqueous solution of extract, and […] of the appropriate 5 mM para-nitrophenyl substrate made up in buffer at the optimum pH for the enzyme. The reactions were stopped by the addition of […] 0.4 M glycine (pH 10.4) during the exponential phase of the reaction, which had been determined at the beginning using uninhibited assays in which water replaced the inhibitor. Final absorbances were read at 405 nm using a Versamax microplate reader (Molecular Devices). Assays were carried out in triplicate, and the values given are the means of the three replicates per assay. All reactions run in water.

The test system of the next series is β-D-glucosidase (almond). The series is described as follows: Glycosidase inhibition, Table 7. The class given is biochemical. To be noted: 1 mg/mL aqueous solution added, 27 °C, run in water. How it is done:
as §4

The next series has as its target T1, α-D-glucosidase (yeast) (Saccharomyces cerevisiae, UniProt P53341).
T1 construct: purchased Sigma
As to the kind of experiment: Glycosidase inhibition, Table 7. It is filed as biochemical. Conditions: 1 mg/mL aqueous solution added, 27 °C, run in water, read-out: α-D-Glucosidase Yeast, percentage inhibition. How it is done: as §4

For a further series, the target named is α-D-glucosidase (rice) (Oryza sativa subsp. japonica, UniProt Q653V7). As to the kind of experiment: Glycosidase inhibition, Table 6 (Laboratory 1). The class given is biochemical.
α-D-glucosidase (rice), sequence (Q653V7 34-885): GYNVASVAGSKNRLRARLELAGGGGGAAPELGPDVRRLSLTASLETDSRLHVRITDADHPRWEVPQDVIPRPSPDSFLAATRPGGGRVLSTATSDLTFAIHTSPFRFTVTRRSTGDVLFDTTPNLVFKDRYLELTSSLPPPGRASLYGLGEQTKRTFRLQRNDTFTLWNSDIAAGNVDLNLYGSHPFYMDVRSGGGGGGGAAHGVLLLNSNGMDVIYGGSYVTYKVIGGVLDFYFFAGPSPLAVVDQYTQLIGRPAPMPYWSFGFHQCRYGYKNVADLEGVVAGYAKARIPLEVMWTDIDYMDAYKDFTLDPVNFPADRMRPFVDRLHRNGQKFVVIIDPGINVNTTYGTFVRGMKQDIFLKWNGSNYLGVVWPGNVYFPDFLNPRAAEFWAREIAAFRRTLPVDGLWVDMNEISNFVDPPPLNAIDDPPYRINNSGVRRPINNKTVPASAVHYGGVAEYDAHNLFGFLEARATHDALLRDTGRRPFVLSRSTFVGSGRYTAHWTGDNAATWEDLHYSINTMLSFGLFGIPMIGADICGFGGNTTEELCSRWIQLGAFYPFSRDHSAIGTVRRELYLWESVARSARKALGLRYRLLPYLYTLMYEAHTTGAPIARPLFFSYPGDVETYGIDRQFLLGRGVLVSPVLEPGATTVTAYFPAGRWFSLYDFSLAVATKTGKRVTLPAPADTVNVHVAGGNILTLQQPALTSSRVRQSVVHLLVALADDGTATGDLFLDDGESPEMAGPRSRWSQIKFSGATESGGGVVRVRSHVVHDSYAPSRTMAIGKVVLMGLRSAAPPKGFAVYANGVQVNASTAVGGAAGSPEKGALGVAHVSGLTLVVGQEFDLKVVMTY

T1 sequence (P53341 whole entry): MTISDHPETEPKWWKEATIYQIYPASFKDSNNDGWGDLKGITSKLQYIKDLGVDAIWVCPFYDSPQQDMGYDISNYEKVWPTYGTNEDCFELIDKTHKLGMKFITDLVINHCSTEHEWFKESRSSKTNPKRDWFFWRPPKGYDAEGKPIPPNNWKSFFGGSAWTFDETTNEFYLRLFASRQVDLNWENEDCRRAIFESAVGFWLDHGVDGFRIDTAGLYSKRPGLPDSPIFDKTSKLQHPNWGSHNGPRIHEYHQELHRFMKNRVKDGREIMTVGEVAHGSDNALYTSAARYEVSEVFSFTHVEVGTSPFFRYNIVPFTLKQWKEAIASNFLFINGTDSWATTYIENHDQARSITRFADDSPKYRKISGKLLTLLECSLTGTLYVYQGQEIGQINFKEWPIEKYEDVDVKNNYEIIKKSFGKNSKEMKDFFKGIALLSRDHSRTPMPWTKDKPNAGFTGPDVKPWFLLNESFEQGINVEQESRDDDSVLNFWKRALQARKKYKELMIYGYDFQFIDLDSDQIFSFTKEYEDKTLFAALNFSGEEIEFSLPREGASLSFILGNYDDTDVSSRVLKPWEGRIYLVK

For orientation: inhibition means the share of the control response that was lost under treatment. Turning to `N[C@@H](Cc1ccc(B(O)O)cc1)C(=O)O` [BPA, 4-borono-L-phenylalanine, reference compound], in [1], the Appearance entry is recorded as “Some in solution with undissolved sediment”. In addition, the inhibition at 25 µM is 5% in the series on SJ-G2 glioblastoma cells; 4% in [2]; under 0% in series [3]; 14% in series [4]; 13% in [5]; 3% in series [6]. The inhibition at 25 µM was 4% in [7]; under 0% with U87 glioblastoma cells; 7% in series [8]; 19% in series [9]; 4% in series [10]. Besides, the “β-D-Glucuronidase Bovine Liver, percentage inhibition” value in series [11] is given as −0.7%. In the series with β-D-glucosidase (almond), the “β-D-Glucosidase Almond, percentage inhibition” value is 3.9%. Besides, the inhibition at 1000 µg/mL (stock) at α-D-glucosidase (yeast) came out at 2.9%.

Take `OC[C@H](O)[C@@H]1[C@H](O)[C@H](O)CN1Cc1ccccc1` [Compound 5, N-Benzyl-1,4-dideoxy-1,4-imino-L-gulitol]: in series [1], the Appearance entry is reported as “In solution”. The inhibition at 25 µM came to 13 ± 6% in [2]; 2 ± 3% in series [4]; 6 ± 1% in [6]; 2% in series [7]; 0% in [8]; 3% in [10]. For the same compound, the GI50 in series [2], in [4], in series [6], in series [7], in [8] and in series [10] was over 50 µM each time. The compound also registered an inhibition at 100 µM on α-D-glucosidase (rice) of 0%. Also, in series [11], the “β-D-Glucuronidase Bovine Liver, percentage inhibition” value is listed as −2.2%. Further, in the series with β-D-glucosidase (almond), the “β-D-Glucosidase Almond, percentage inhibition” value was 17.1%. The inhibition at 1000 µg/mL (stock) on α-D-glucosidase (yeast) was 5.5%.

Consider `CC1(C)O[C@H]2O[C@H]3[C@@H]([C@H]2O1)N(Cc1ccc(B2OC(C)(C)C(C)(C)O2)cc1)C[C@H]3O` [para 6, N-(4-Methylphenylboronic acid pinacol ester)-3,6-dideoxy-3,6-imino-1,2-O-isopropylidene-α-D-gulofuranose], for which the Appearance result in series [1] is “Completely insoluble”. Moreover, the inhibition at 25 µM in the series with SJ-G2 glioblastoma cells was found to be 9%; in series [2], 14%; in series [3] it was 3%; in series [4], 8%; in series [5], 5%; in series [6], 9%. Further, the inhibition at 25 µM in series [7] is 6%; in the series on U87 glioblastoma cells, 7%; in [8] it was 10%; in [9], under 0%; in series [10], 14%. At α-D-glucosidase (rice), this compound had an inhibition at 100 µM of 0%.

Consider `OB(O)c1ccc(CN2CC(O)C3OC(O)C(O)C32)cc1` [para 7, N-(4-Methylphenylboronic acid)-3,6-dideoxy-3,6-imino-D-gulofuranose], for which, in series [1], the Appearance result is reported as “In solution”. For the same compound, the inhibition at 25 µM in [2] turned out to be 27 ± 2%; in series [4] it was 15 ± 3%; in series [6] it was 14%; in [7], 9 ± 5%; in series [8], 9 ± 6%; in [10], 4 ± 2%. For the same compound, the GI50 in series [2], in series [4], in series [6], in series [7], in [8] and in [10] was over 50 µM throughout. The compound also showed an inhibition at 1000 µM against α-D-glucosidase (rice) of 0%. Also, the “β-D-Glucuronidase Bovine Liver, percentage inhibition” value in series [11] stood at 1.1%. In addition, the “β-D-Glucosidase Almond, percentage inhibition” value with β-D-glucosidase (almond) is given as 68.1%. Besides, the inhibition at 1000 µg/mL (stock) on α-D-glucosidase (yeast) amounted to 4.2%.

Turning to `OC[C@H](O)[C@@H]1[C@H](O)[C@H](O)CN1Cc1ccc(B(O)O)cc1` [para 8, N-(4-Methylphenylboronic acid)-1,4-dideoxy-1,4-imino-L-gulitol], the Appearance result in [1] was “In solution”. For the same compound, the inhibition at 25 µM in [2] worked out at 14 ± 7%; in series [4] it was 5 ± 2%; in [6], 11 ± 1%; in series [7] it was 0%; in [8] it was 1 ± 2%; in [10], 1%. The GI50 in series [2], in [4], in series [6], in [7], in series [8] and in series [10] was over 50 µM throughout. At α-D-glucosidase (rice), this compound displayed an inhibition at 1000 µM of 8.2%. Besides, the “β-D-Glucuronidase Bovine Liver, percentage inhibition” value in [11] turned out to be 2.4%. Besides, the “β-D-Glucosidase Almond, percentage inhibition” value in the series on β-D-glucosidase (almond) is given as 23.9%. For the same compound, the inhibition at 1000 µg/mL (stock) at α-D-glucosidase (yeast) came out at 9.7%.
